Results taken from US12138254B2, “Chronic nightly dosing of lasmiditan for migraine prevention” (Eli Lilly and Company, priority 2018, dated 2024).
Entries after “also recorded” stand apart in the source; their conditions may differ. Read-outs that look alike come from different tables or passages of the source.

Legend:
[1] = system: dural plasma protein extravasation; assay: Trigeminal stimulation-induced dural plasma protein extravasation (PPE) in rats; assay type: in vivo, Sprague-Dawley rats
Excerpt: Migraine is a painful condition thought to involve neurogenic inflammation of the dural membrane and activation of the trigeminal nervous system. The 5-HT1F receptor is widely expressed in the CNS and peripheral nerves, including the trigeminal ganglia, dorsal root ganglia and trigeminal nucleus caudalis. Plasma protein extravasation (PPE), one component of neurogenic inflammation, can be induced in the dura of rats by electrically stimulating the trigeminal ganglion. Considering the role of the trigeminal nerve in the physiology of migraine, this study is useful to characterize the ability of lasmiditan-hemisuccinate to block plasma protein extravasation in the dura of rats following electrical stimulation of the trigeminal ganglion.
To investigate the potential of lasmiditan to modify the dysfunction in the target tissue, the duration of effect following a single oral dose of lasmiditan-hemisuccinate was also determined. Electrical stimulation of the trigeminal ganglion of rats and guinea pigs can be used to induce neurogenic inflammation in the meninges (dura). Briefly, unilateral electrical stimulation of either the left or right trigeminal ganglion using electrodes implanted stereotaxically is used to induce ipsilateral neurogenic inflammation and the increased extravasation of plasma proteins.
Lasmiditan-hemisuccinate is dissolved in sterile water. All doses of lasmiditan are reported as free base equivalent doses, accounting for the weight of the salt. Envigo Sprague-Dawley, Sprague-Dawley male rats (250-350 grams, n=4/group) are fasted overnight prior to dosing. The animals are orally gavaged (2 mL/kg dose volume) with test compound or vehicle one hour prior to stimulation time and returned to their cages with only water available. Approximately 50 minutes post-dosing, the rats are anesthetized with Nembutal (65 mg/kg, ip.) and implanted with stainless steel stimulating electrodes (Rhodes Medical Systems, Inc.) to a depth of 9.2 mm. from the dura. The femoral vein is exposed and fluorescein isothiocyanate-labeled bovine serum albumin (FITC-BSA) (20 mg/kg, iv.), is injected into the femoral vein 2 minutes prior to stimulation. The FITC-BSA functions as a marker for protein extravasation. The left trigeminal ganglion is stimulated for 5 minutes at a current intensity of 1.0 mA (5 Hz, 5 msec pulse duration) with a Model S48 Grass Instrument Stimulator with PSIU6 photoelectric isolation unit (Grass-Telefactor). Five minutes following stimulation, a blood sample is collected by cardiac puncture and the rats are sacrificed by exsanguination with 40 ml of saline. One milliliter of blood is collected and placed in a 1.5 ml EDTA coated tube (Fisher Cat. #540734) on ice. Plasma is separated via centrifugation at 10,000 rpm (941 g) for thirty minutes at 4° C. The top of the skull is removed to collect the brain and dural membranes. The brain and plasma samples are frozen at −80° C. until thawed for compound quantification. The membrane samples are removed from both hemispheres, rinsed with water, and spread flat on microscope slides. The slides are dried for 15 minutes on a slide warmer, then the tissues are cover-slipped with a 70% glycerol/water solution. A fluorescence microscope (Zeiss) equipped with a grating monochromator and a spectrophotometer is used to quantify the amount of FITC-BSA dye in each dural sample. The extravasation induced by electrical stimulation of the trigeminal ganglion is an ipsilateral effect (i.e. occurs only on the side of the dura in which the trigeminal ganglion was stimulated). This allows the other (unstimulated) half of the dura to be used as the control. The ratio of extravasation in the dura from the stimulated side versus the unstimulated side is calculated and reported as the extravasation ratio for each animal. The mean extravasation ratio and standard error of the mean (SEM) are calculated for each treatment group. Controls yield a ratio of approximately 1.8. […]

[2] = system: simulated driving performance; assay: Computer-based driving simulator study in healthy volunteers
patients with migraine = conditions: cited from earlier work; for pain freedom (primary) and MBS freedom (key secondary) at 2 hours vs placebo: Phase 3 trials, all doses (50, 100, 200 mg); for proportion of patients headache pain-free / proportion of patients most bothersome symptom (MBS)-free: lasmiditan 200 mg, 2 hours post-first dose, p<0.001

## CN1CCC(C(=O)c2cccc(NC(=O)c3c(F)cc(F)cc3F)n2)CC1 [Lasmiditan, 2,4,6-trifluoro-N-[6-(1-methyl-piperidin-4-ylcarbonyl)-pyridin-2-yl]-benzamide]
[1]; 0.1 mg/kg po, 1 hour post-dose
  inhibition of dural plasma protein extravasation vs vehicle: non-efficacious
[1]; single 10 mg/kg po, 24 hours post-dose
  inhibition of dural plasma protein extravasation vs vehicle: equally efficacious
[1]; single 10 mg/kg po, 48 hours post-dose
  inhibition of dural plasma protein extravasation vs vehicle: not at 48 hours
[2]; after dosing
  time by which impaired simulated driving performance resolved: ≤ 8 h
[2]; all doses, acute treatment
  driving impairment / simulated driving performance: impair simulated driving performance in a dose-dependent manner; also recorded: associated with driving impairment
Patients with migraine; Phase 3 studies, b6: ≥2% and greater than placebo after the first dose
  most frequently reported / most common TEAEs: dizziness, paresthesia, somnolence, fatigue, and nausea
Patients with migraine; Phase 3 studies
  severity of TEAEs: mild or moderate
Patients with migraine
  pain freedom (primary) and MBS freedom (key secondary) at 2 hours vs placebo: statistically significant superiority over placebo
Patients with migraine; listed as lasmiditan
  pain freedom (primary) and MBS freedom (key secondary) at 2 hours vs placebo: significantly higher rates
Patients with migraine; SAMURAI, placebo 15.3%
  proportion of patients headache pain-free: 32.2%
Patients with migraine; SAMURAI, placebo 29.5%
  proportion of patients most bothersome symptom (MBS)-free: 40.7%
Patients with migraine; SPARTAN, placebo 21.3%
  proportion of patients headache pain-free: 38.8%
Patients with migraine; SPARTAN, placebo 33.5%
  proportion of patients most bothersome symptom (MBS)-free: 48.7%
Patients with migraine; lasmiditan 100 mg, 50 mg dose groups
  headache pain-free and MBS-free at 2 hours compared to placebo: significance was also noted
